According to patent publication US20050090522A1 (priority 2001, published 2005):
Read-outs that look alike come from different tables or passages of the source.

How the values were obtained:
HeLa cells = test: Cytotoxicity assay in HeLa cells (MTT dye reduction, CC50); details: cytotoxicity; Yes = CC50 above 100 uM, No = not
Method: • Virus production—Human embryonic Kidney cell line, 293, propagated in Dulbecco's Modified Eagle Medium (Life Technologies, Gaithersburg, Md.) containing 10% fetal Bovine serum (FBS, Sigma, St. Louis, Mo.). • Virus infection—Human epithelial cell line, HeLa, expressing the HIV-1 receptors CD4 and CCR^5 was propagated in Dulbecco's Modified Eagle Medium (Life Technologies, Gaithersburg, Md.) containing 10% fetal Bovine serum (FBS, Sigma, St. Louis, Mo.) and supplemented with 0.2 mg/mL Geneticin (Life Technologies, Gaithersburg, Md.) and 0.4 mg/mL Zeocin (Invitrogen, Carlsbad, Calif.). […] Transfections were performed using lipofectAMINE PLUS reagent as described by the manufacturer (Life Technologies, Gaithersburg, Md.). Experiment • 1. Compound was added to HeLa CD4 CCR5 cells plated in 96 well plates at a cell density of 5×10^4 cells per well in 100 μl Dulbecco's Modified Eagle Medium containing 10% fetal Bovine serum at a concentration of […]. • 2. 100 μl of single-round infectious reporter virus in Dulbecco's Modified Eagle Medium was then added to the plated cells and compound at an approximate multiplicity of infection (MOI) of 0.01, resulting in a final volume of 200 μl per well and a final compound concentration of <10 μM. • 3. Samples were harvested 72 h after infection. • 4. Viral infection was monitored by measuring luciferase expression from viral DNA in the infected cells using a luciferase reporter gene assay kit (Roche Molecular Biochemicals, Indianapolis, Ind.). Infected cell supernatants were removed and 50 μl of Dulbecco's Modified Eagle Medium (without phenol red) and 50 μl of luciferase assay reagent reconstituted as described by the manufacturer (Roche Molecular Biochemicals, Indianapolis, Ind.) was added per well. Luciferase activity was then quantified by measuring luminescence using a Wallac microbeta scintillation counter. • 5. […] An EC50 provides a method for comparing the antiviral potency of the compounds of this invention. The effective concentration for fifty percent inhibition (EC50) was calculated with the Microsoft Excel Xlfit curve fitting software. For each compound, curves were generated from percent inhibition calculated at 10 different concentrations by using a four paramenter logistic model (model 205). Table 1 is the key for the data in Tables 2-4. Cytoxicity assays were conducted with the same HeLa using methodology well known in the art.
(§1) For accuracy, the determined measure of viral inhibition is an EC50; but the minimum plasma concentrations which should be maintained in a patient is generally believed to be at least four or five fold higher. […] Lower is better. • 4) Estimating potential exposure in man by measuring parameters such as AUC and rate of clearance by oral and iv dosing in rats. High exposure and low clearance was desired.

HIV-1 = HIV-1 single-round infectious luciferase reporter virus (pseudotype) assay in HeLa CD4 CCR5 cells; type: cell-based
Procedure, shortened: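 HeLa CD4 CCR5 cells (5×10^4/well, DMEM + 10% FBS) were treated with compound (final <10 μM) and infected with single-round luciferase reporter virus made in 293 cells, at MOI ~0.01. Luciferase was read 72 h post infection. EC50 came from 10-concentration percent-inhibition curves fitted to a four-parameter logistic model.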

[1] = Metabolic stability in pooled human liver microsomes (HLM); details: pooled human liver microsomes, 3 μM drug; Low/Intermediate/High
Method: Metabolic Stability Studies of compounds in Liver Microsomes. The metabolic stability of compounds were investigated in pooled liver microsomes from humans. The human liver microsomes were obtained from BD Gentest (Lot #16, Woburn, Mass.) with a protein concentration of 20 mg/ml and a total cytochrome P450 (CYP) concentration of 0.55 nmol/mg protein. A stock solution of drug was prepared in acetonitrile at 1 mM. […] The incubation media consisted of potassium phosphate buffer (0.1 M, pH 7.4), liver microsomes (final concentration 0.9 mg/ml), magnesium chloride (0.033 mM), and a NADPH-regenerating system. […] The test compound was pre-incubated in the media for 2 min. The reaction was initiated by the addition of the cofactors. The incubation was carried out at 37° C. for 10 min. The reaction was terminated by drawing an aliquot of 100 μL from the incubation and adding into 200 μL of acetonitrile containing a reference compound as an […] analytical standard. Following vortex-mixing and centrifugation, an aliquot of 10 μL of the supernatant was analyzed by LC/MS.
GUIDELINES can be used to categorized test substances as low, intermediate or highly cleared compounds.
as §1
The stability of compounds were also evaluated to determine metabolic stability when incubated in in vitro preparations of human liver microsomes (HLM). This is one commonly used predictive system for evaluating the potential for human metabolism and projecting clearance rates in man. Compounds with low clearance rates were most desireable.

[2] = Human immunodeficiency virus 1, HeLa-CD4/CCR5, read-out: EC50 Group from TABLE 1, HeLa CD4 CCR5 cells, single-round infectious luciferase reporter virus
[3] = Human immunodeficiency virus 1, HeLa-CD4/CCR5, read-out: EC50 category, HIV-1 single-round reporter virus assay, category 1/2/3 per Table A1 key
[4] = Human immunodeficiency virus 1, HeLa-CD4/CCR5, read-out: EC50 Group from Table 1, Table 4, HeLa CD4 CCR5 cells, single-round luciferase reporter virus

| Compound | CC50 > 100 uM (HeLa cells) | EC50 (HIV-1; [2]) | EC50 (HIV-1; [3]) | HLM predicted human clearance class [1] | EC50 (HIV-1; [4]) | EC50 (HIV-1; Human immunodeficiency virus 1, HeLa-CD4/CCR5, read-out: EC50 Group from Table 1, Table 2-1, HeLa CD4 CCR5 cells, single-round luciferase reporter virus) |
| --- | --- | --- | --- | --- | --- | --- |
| Cn1ccc(-c2ncc(F)c3c(C(=O)C(=O)N4CCN(C(=O)c5ccccc5)CC4)c[nH]c23)n1 [Example 29, 1-benzoyl-4-[(4-fluoro-7-(1-methyl-pyrazol-3-yl)-6-azaindol-3-yl)-oxoacetyl]piperazine] | No | < 1000 nM | 0.2 to 1000 nM | High (0.201-0.300) |  |  |
| COc1cnc(-c2nccs2)c2[nH]cc(C(=O)C(=O)N3CCN(C(=O)c4ccccc4)CC3)c12 [Example 35, 1-(benzoyl)-4-[(4-methoxy-7-(thiazol-2-yl)-6-azaindol-3-yl)-oxoacetyl]piperazine] | Yes | < 1000 nM | < 0.2 nM | Intermediate (0.101-0.200) |  |  |
| O=C(C(=O)N1CCN(C(=O)c2ccccc2)CC1)c1c[nH]c2c(-c3cc[nH]n3)ncc(F)c12 [Example 38, 1-benzoyl-4-[(4-fluoro-7-(pyrazol-3-yl)-6-azaindol-3-yl)-oxoacetyl]piperazine] |  | < 1000 nM | < 0.2 nM | Low (0-0.100) |  |  |
| COc1cnc(-c2cc[nH]n2)c2[nH]cc(C(=O)C(=O)N3CCN(C(=O)c4ccccc4)CC3)c12 [Example 39, 1-benzoyl-4-[(4-methoxy-7-(pyrazol-3-yl)-6-azaindol-3-yl)-oxoacetyl]piperazine] | No | < 1000 nM | 0.2 to 1000 nM | Intermediate (0.101-0.200) |  |  |
| O=C(C(=O)N1CCN(C(=O)c2ccccc2)CC1)c1c[nH]c2c(-c3cncnc3)ncc(F)c12 [Example 42, 1-benzoyl-4-[(4-fluoro-7-(pydin-5-yl)-6-azaindol-3-yl)-oxoacetyl]piperazine] | Yes | < 1000 nM | 0.2 to 1000 nM | Low (0-0.100) |  |  |
| COc1cnc(-c2cncs2)c2[nH]cc(C(=O)C(=O)N3CCN(C(=O)c4ccccc4)CC3)c12 [Example 71, 1-benzoyl-4-[(4-methoxy-7-(thioazol-5-yl)-6-azaindol-3-yl)-oxoacetyl]piperazine] | Yes | < 1000 nM | < 0.2 nM | Intermediate (0.101-0.200) |  |  |
| COc1cnc(-c2ccco2)c2[nH]cc(C(=O)C(=O)N3CCN(C(=O)c4ccccc4)CC3)c12 [Example 73, 1-(benzoyl)-4-[(4-methoxy-7-(furan-2-yl)-6-azaindol-3-yl)-oxoacetyl]piperazine] | Yes | < 1000 nM | < 0.2 nM | Intermediate (0.101-0.200) |  |  |
| COc1cnc(-c2ncco2)c2[nH]cc(C(=O)C(=O)N3CCN(C(=O)c4ccccc4)CC3)c12 [Example 74, 1-benzoyl-4-[(4-methoxy-7-(oxazol-2-yl)-6-azaindol-3-yl)-oxoacetyl]piperazine] | No | < 1000 nM | 0.2 to 1000 nM | Intermediate (0.101-0.200) |  |  |
| COc1cnc(-c2cnc(NC(C)=O)s2)c2[nH]cc(C(=O)C(=O)N3CCN(C(=O)c4ccccc4)CC3)c12 [Example 78, 1-benzoyl-4-[(4-methoxy-7-(2-acetylamino-thiazol-5-yl)-6-azaindol-3-yl)-oxoacetyl]piperazine] | Yes | < 1000 nM | 0.2 to 1000 nM | Intermediate (0.101-0.200) |  |  |
| O=C(C(=O)N1CCN(C(=O)c2ccccc2)CC1)c1c[nH]c2c(-c3cnccn3)ncc(F)c12 [Example 95, 1-benzoyl-4-[(4-fluoro-7-(pyrazin-2-yl)-6-azaindol-3-yl)-oxoacetyl]piperazine] |  | < 1000 nM | < 0.2 nM | Intermediate (0.101-0.200) |  |  |
| C[C@@H]1CN(C(=O)c2ccccc2)CCN1C(=O)C(=O)c1c[nH]c2c(-n3cccn3)ncc(Br)c12 [Example 139] | Yes | < 1000 nM | 0.2 to 1000 nM | High (0.201-0.300) |  |  |
| O=C(C(=O)N1CCN(C(=O)c2ccccc2)CC1)c1c[nH]c2c(-c3ncco3)ncc(F)c12 [Example 140] | Yes | < 1000 nM | 0.2 to 1000 nM | Intermediate (0.101-0.200) |  |  |
| O=C(C(=O)N1CCN(C(=O)c2ccccc2)CC1)c1c[nH]c2c(-c3ncon3)ncc(F)c12 [Example 146] | Yes | < 1000 nM | 0.2 to 1000 nM | Intermediate (0.101-0.200) |  |  |
| O=C(C(=O)N1CCN(C(=O)c2ccccc2)CC1)c1c[nH]c2c(-c3cn(-c4ccccc4)nn3)ccnc12 [Example 161] | Yes |  | < 0.2 nM | High (0.201-0.300) | < 1000 nM |  |
| O=C(C(=O)N1CCN(C(=O)c2ccccc2)CC1)c1c[nH]c2c(-n3cncn3)ccnc12 [Example 207, 1-(4-benzoyl-piperazin-1-yl)-2-(7-[1,2,4]triazol-1-yl-1H-pyrrolo[3,2-b]pyridin-3-yl)-ethane-1,2-dione] | Yes |  | 0.2 to 1000 nM | Low (0-0.100) | < 1000 nM |  |
| CNC(=O)c1cc(-c2ncc(F)c3c(C(=O)C(=O)N4CCN(C(=O)c5ccccc5)CC4)c[nH]c23)n[nH]1 [Example 211] |  | < 1000 nM | < 0.2 nM | Intermediate (0.101-0.200) |  |  |
| CN(C)C(=O)c1cc(-c2ncc(F)c3c(C(=O)C(=O)N4CCN(C(=O)c5ccccc5)CC4)c[nH]c23)n[nH]1 [Example 212] |  | < 1000 nM | < 0.2 nM | Low (0-0.100) |  |  |
| O=C(C(=O)N1CCN(C(=O)c2ccccc2)CC1)c1c[nH]c2c(N3CCCC3)ncc(F)c12 [Example 221] | Yes | < 1000 nM | 0.2 to 1000 nM | Low (0-0.100) |  |  |
| O=C(C(=O)N1CCN(C(=O)c2ccccc2)CC1)c1c[nH]c2c(N3CCOCC3)ncc(F)c12 [Example 222] | Yes | < 1000 nM | 0.2 to 1000 nM | Low (0-0.100) |  |  |
| CCc1ccn(-c2ncc(OC)c3c(C(=O)C(=O)N4CCN(C(=O)c5ccccc5)[C@H](C)C4)c[nH]c23)n1 [Example 230, (R)-1-benzoyl-2-methyl-4-[(4-methoxy-7-(3-ethyl-pyrazol-1-yl)-6-azaindol-3-yl)-oxoacetyl]piperazine] | Yes |  | < 0.2 nM | Intermediate (0.101-0.200) |  | < 1000 nM |
